From US20120039796A1, “Novel method for creating, suspending and stabilizing electronically modified oxygen derivatives, along with creating, suspending and stabilizing electronically modified reaction intermediates, in a bio compatible fluorocarbon suspension, for the purpose of inducing a cascading immune response in …” (priority 2010, published 2012)

Experiments:
TrxR = molecular target: T1, TrxR (Homo sapiens, UniProt Q16881); settings: cited from earlier work
T1 sequence (Q16881 151-649 limits assumed): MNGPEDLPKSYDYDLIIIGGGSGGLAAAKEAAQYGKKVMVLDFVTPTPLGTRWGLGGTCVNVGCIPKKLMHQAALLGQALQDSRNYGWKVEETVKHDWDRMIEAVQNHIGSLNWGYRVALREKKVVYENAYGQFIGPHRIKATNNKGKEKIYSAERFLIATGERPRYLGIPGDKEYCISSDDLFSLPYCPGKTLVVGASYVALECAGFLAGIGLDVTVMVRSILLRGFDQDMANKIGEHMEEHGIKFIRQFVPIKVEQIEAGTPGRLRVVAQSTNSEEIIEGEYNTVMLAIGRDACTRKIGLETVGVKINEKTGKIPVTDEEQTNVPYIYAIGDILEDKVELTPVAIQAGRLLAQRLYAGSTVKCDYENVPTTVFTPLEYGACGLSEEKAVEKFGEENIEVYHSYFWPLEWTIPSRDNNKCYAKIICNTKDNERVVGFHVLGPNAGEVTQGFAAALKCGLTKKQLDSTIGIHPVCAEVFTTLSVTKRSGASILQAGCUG

cancer cell cultures = settings: cited from earlier work
[1] = cited from earlier work
[2] = Decay of ozone bubbled into distilled water, absorbance at 260 nm; assay type: physicochemical
Method: 15 ml of distilled h20 was used to bubble a mixture of ozone/oxygen through the sample for 30 min in a glass bubbler using a custom made proton exchange membrane ozone machine, which then 0.01 ml sample was quickly placed in a hatch DR 4000 u spectrometer, the machine was zeroed before the sample was placed in, also the absorbance wave length was set for 260 nm, the detection absorbance band of ozone, initial results at the peak were 0.590 ABS, but quickly decayed and after 20 min the ozone present in the sample was completely gone. This is the main problem with modem ozone therapy, the sample disappears with a predictable results extremely fast decay rate with in 20 min, and there is not enough of a concentration left to make a therapeutic difference, especially for burns, ulcerations, tendon injections.

[3] = Stability of ozone in 95% pure Fluorodecalin (C10F18), non-frozen, continuous absorbance at 260 nm; assay type: physicochemical
Method: (§1) After the ten hours expired, the spectrometer was quickly restarted for another 10 hours, were after the first 4 hours and 20 min in the second run is where the sample reached its half life. Once the 20 hours expired, the ABS reading was 0.082 were it took another 10 hours for Ozone too fully decay.
In the first PFC experiment, the ozone was stable within the PFC matrix for over 5 hours without any appreciable decay, after 5 hours the sample started to deviate and when the 10 hours mark was reached, the reading was around 0.600 ABS, in the last 5 hours of the run is when the sample lost 0.09 ABS, this was excellent result. In the second part of the experiment is where the sample decay accelerated. […] It should be noted the sample of PFC was 95% pure, and was the only purity I could attain at the time for the experiment and due to time constraints another sample could not have been attained. It should also be noted when the sample was finally removed from the machine for clean up, about 60 hours later after the initial experiment, half the sample evaporated. […] The utility of this patent is self evident; this invention solves the problems that plagued modern ozone therapy for the last 100 years.

[4] = Stability of ozone in Fluorodecalin stored frozen at -50 C for 30 days, absorbance at 260 nm; assay type: physicochemical
Method: as §1
After 30 days, the sample that was placed in the freezer was removed out of the freezer, with in 5 min the sample was completely thawed, which then a 0.01 ml sample was quickly placed it into the spectrometer were 3 consecutive single non timed scans were taken, with an average highest ABS reading of 0.688.

[5] = cited from earlier work; remark: listed apart in the source

For `O=c1c(O)c(-c2ccc(O)c(O)c2)oc2cc(O)cc(O)c12` [quercetin], the “inhibitory effect on TrxR” value (TrxR) is listed as “NADPH-, concentration-, and time-dependent inhibitory effect”.

For `O=C1c2c(O)cc(O)cc2O[C@H](c2ccc(O)c(O)c2)[C@H]1O` [taxifolin], the “inhibitory effect on TrxR” value (TrxR) is given as “NADPH-, concentration-, and time-dependent inhibitory effect”.

For `O=c1c(O)c(-c2cc(O)c(O)c(O)c2)oc2cc(O)cc(O)c12` [myricetin], the “inhibitory effect on TrxR” value (TrxR) is listed as “NADPH-, concentration-, and time-dependent inhibitory effect”.

For catechin, the “inhibitory effect on TrxR” value (TrxR) is given as “NADPH-, concentration-, and time-dependent inhibitory effect”.

In the case of `O=CC[C@@H](O)[C@H](O)[C@H](O)CO` [Example 2-DG, 2-Deoxy-D-glucose], the apoptosis (cancer cell cultures; by glucose deprivation) is listed as “induces apoptosis” and the “effect on cell growth” value (cancer cell cultures) is listed as “hampers cell growth”.

In the case of `O=O` [oxygen], the “solubility in PFC liquids” value ([1]; PFC liquids for biomedical applications, 37° C., 1 atm) is given as 40-50 vol. % and the solubility in water ([1]; water, 37° C., 1 atm) is given as 2.5 vol. %.

With `O=[O+][O-]` [ozone] the “time after which ozone in the sample was completely gone” value ([2]; distilled h20) was 20 min, the “initial absorbance at the peak” value ([2]; ozone/oxygen bubbled 30 min through distilled h20, 260 nm) was 0.590 ABS and the “initial absorbance at the highest peak” value ([3]; 20/80 ozone/oxygen bubbled 20 min in Fluorodecalin, 260 nm) was “around 0.690 ABS”. The “absorbance at the 10 hours mark” value ([3]; Fluorodecalin, non-frozen) was “around 0.600 ABS”, the “absorbance once 20 hours expired” value ([3]; Fluorodecalin, non-frozen) was 0.082 ABS and the “further time for ozone to fully decay after the 20 hours” value ([3]; Fluorodecalin, non-frozen) was 10 h. For the same compound, the “deviation in ABS over the first 10 hours” value ([3]; Fluorodecalin, non-frozen, first 10 hour run) was 0.09 ABS, the “stability in the frozen state” value ([4]; 30 days at -50 C) was “fully stabilized” and the “average highest ABS reading after storage” value ([4]; 30 days in freezer at -50 C, thawed, 3 scans) was 0.688 ABS. For the same compound, the “time stable in air at -50 degrees C” value ([5]; air, -50 degrees C) was “about 3 months”, the half-life in air ([5]; air) was 12 h and the half-life in saline ([5]; saline) was “less than 20 min”. The half-life in water ([5]; watery solution) was “about 20 minutes” and the “amount dissolved in perfluorodecalin relative to oxygen” value ([1]; at stp) was 13 times.

In the case of `FC1(F)C(F)(F)C(F)(F)C2(F)C(F)(F)C(F)(F)C(F)(F)C(F)(F)C2(F)C1(F)F` (centres unmarked) [perfluorodecalin], the “volume of oxygen dissolved by 100 ml” value ([1]; 100 ml perfluorodecalin at 25° C., oxygen at STP) is given as 49 mL.
